For this experiment, the target named is T1, CAMKK2 (CaMKK beta) (Homo sapiens, UniProt Q96RR4).
T1 construct: purchased Thermo Fisher Scientific (Life Technologies) SelectScreen
In words: SelectScreen LanthaScreen. The format is binding. The following applies: read-out: % displacement. An outline of the steps:
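Percent values come from Thermo SelectScreen profiling of NU5455, combining activity and binding assays. CSF1R was run in Z'LYTE format at Km app ATP, and CAMK1 in Adapta format with ATP listed at 10.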

The values below come from publication PMC6934184, “Selective DNA-PKcs inhibition extends the therapeutic index of localized radiotherapy and chemotherapy” (The Journal of Clinical Investigation, 2019).

T1 sequence (Q96RR4 whole entry): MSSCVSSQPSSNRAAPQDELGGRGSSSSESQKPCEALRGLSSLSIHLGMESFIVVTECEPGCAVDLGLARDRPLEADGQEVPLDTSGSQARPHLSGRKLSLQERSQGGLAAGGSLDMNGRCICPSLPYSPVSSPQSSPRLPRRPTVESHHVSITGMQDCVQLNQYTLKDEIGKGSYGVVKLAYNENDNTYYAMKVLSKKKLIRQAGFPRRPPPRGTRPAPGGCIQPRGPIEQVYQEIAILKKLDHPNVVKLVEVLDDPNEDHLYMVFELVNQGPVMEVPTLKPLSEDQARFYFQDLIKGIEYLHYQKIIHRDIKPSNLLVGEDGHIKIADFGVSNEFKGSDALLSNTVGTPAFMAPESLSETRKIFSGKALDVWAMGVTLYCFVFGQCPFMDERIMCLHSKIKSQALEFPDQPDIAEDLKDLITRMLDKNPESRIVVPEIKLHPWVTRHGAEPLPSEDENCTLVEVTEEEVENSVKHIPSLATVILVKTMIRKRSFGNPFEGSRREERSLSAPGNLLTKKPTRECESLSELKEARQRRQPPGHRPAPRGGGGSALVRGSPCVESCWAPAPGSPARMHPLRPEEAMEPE

For `CN(C(=O)CN1CCOCC1)c1ccc2sc3c(-c4cccc5c(=O)cc(N6CC7CCC(C6)O7)oc45)cccc3c2c1` [NU5455], the inhibition at 1 µM is 0.9%.
